Assay results as given in ChEMBL document CHEMBL3860051, “Phosphorothioate analogs of P1,P3-di(nucleosid-5'-yl) triphosphates: Synthesis, assignment of the absolute configuration at P-atoms and P-stereodependent recognition by Fhit hydrolase” (Bioorg Med Chem, 2016).

Tests used:
[1] = Drug level treated with 1-O-[(guanosin-5'-yl)thiophosphyl]-2-S-[(guanosin-5'-yl)dithiophosphyl]-ethane assessed as snake venom phosphodiesterase-mediated compound formation at 50 uM after 15 mins by RP-HPLC analysis; format: ADME; settings: serpentes, 0.25 h
[2] = Retention time of compound by RP-HPLC analysis; format: physicochemical
[3] = target: T1, Bis(5'-adenosyl)-triphosphatase (Homo sapiens, UniProt P49789); experiment: Stability of the compound assessed as human Fhit expressed in Escherichia coli BL21-mediated compound hydrolysis rate per microgram protein at 50 uM after 5 to 120 mins by RP-HPLC analysis; format: ADME
[4] = system: snake venom phosphodiesterase; experiment: Stability of the compound assessed as snake venom phosphodiesterase-mediated compound hydrolysis at 50 uM after 10 mins by RP-HPLC analysis; format: ADME; settings: serpentes, read-out: Drug degradation
[5] = Stability of the compound assessed as snake venom phosphodiesterase-mediated initial rate of hydrolysis per microgram of protein at 50 uM after 10 mins by RP-HPLC analysis; format: ADME; settings: serpentes
[6] = target: T1, Bis(5'-adenosyl)-triphosphatase; experiment: Stability of compound assessed as human Fhit expressed in Escherichia coli BL21-mediated compound initial rate of hydrolysis per microgram of protein at 50 to 200 uM after 5 to 120 mins by RP-HPLC analysis; format: ADME
[7] = system: snake venom phosphodiesterase; experiment: Stability of the compound assessed as snake venom phosphodiesterase-mediated compound hydrolysis at 200 uM after 1 hr by RP-HPLC analysis; format: ADME; settings: serpentes, read-out: Drug degradation
[8] = Stability of the compound assessed as snake venom phosphodiesterase-mediated initial rate of hydrolysis per microgram of protein at 200 uM after 1 hr by RP-HPLC analysis; format: ADME; settings: serpentes
[9] = Stability of the compound assessed as snake venom phosphodiesterase-mediated initial rate of hydrolysis per microgram of protein at 50 uM by RP-HPLC analysis; format: ADME; settings: serpentes
[10] = system: snake venom phosphodiesterase; experiment: Stability of compound assessed as snake venom phosphodiesterase-mediated compound hydrolysis at 50 uM by RP-HPLC analysis; format: ADME; settings: serpentes, read-out: Drug degradation
[11] = Drug level treated with (S,S)-P1,P3-di(adenosin-5'-yl)P1,P3- bis-thio-triphosphate assessed as snake venom phosphodiesterase-mediated compound formation at 50 uM after 2 hrs by RP-HPLC analysis; format: ADME; settings: serpentes
[12] = Drug level treated with (R,S)-P1,P3-di(adenosin-5'-yl)P1,P3- bis-thio-triphosphate assessed as snake venom phosphodiesterase-mediated compound formation at 50 uM after 30 mins by RP-HPLC analysis; format: ADME; settings: serpentes, 0.5 h
[13] = system: snake venom phosphodiesterase; experiment: Stability of the compound assessed as snake venom phosphodiesterase-mediated compound hydrolysis at 50 uM after 2 hrs by RP-HPLC analysis; format: ADME; settings: serpentes, read-out: Drug degradation
[14] = Stability of the compound assessed as snake venom phosphodiesterase-mediated initial rate of hydrolysis per microgram of protein at 50 uM after 2 hrs by RP-HPLC analysis; format: ADME; settings: serpentes
[15] = Drug level treated with (R,R)-P1,P3-di(adenosin-5'-yl)P1,P3-bis-thio-triphosphate assessed as snake venom phosphodiesterase-mediated compound formation at 50 uM after 10 mins by RP-HPLC analysis; format: ADME; settings: serpentes
[16] = system: snake venom phosphodiesterase; experiment: Stability of the compound assessed as snake venom phosphodiesterase-mediated compound hydrolysis at 50 uM after 30 mins by RP-HPLC analysis; format: ADME; settings: serpentes, read-out: Drug degradation
[17] = Stability of the compound assessed as snake venom phosphodiesterase-mediated initial rate of hydrolysis per microgram of protein at 50 uM after 30 mins by RP-HPLC analysis; format: ADME; settings: serpentes, 0.5 h
[18] = system: snake venom phosphodiesterase; experiment: Stability of the compound assessed as snake venom phosphodiesterase-mediated compound hydrolysis at 50 uM after 1 hr by RP-HPLC analysis; format: ADME; settings: serpentes, read-out: Drug degradation
[19] = Stability of the compound assessed as snake venom phosphodiesterase-mediated initial rate of hydrolysis per microgram of protein at 50 uM after 1 hr by RP-HPLC analysis; format: ADME; settings: serpentes
[20] = system: snake venom phosphodiesterase; experiment: (§1) Stability of the compound assessed as snake venom phosphodiesterase-mediated compound hydrolysis at 50 uM after 15 mins by RP-HPLC analysis; format: ADME; settings: serpentes, snake venom phosphodiesterase; read-out: Drug degradation
[21] = Stability of the compound assessed as snake venom phosphodiesterase-mediated initial rate of hydrolysis per microgram of protein at 50 uM after 15 mins by RP-HPLC analysis; format: ADME; settings: serpentes, 0.25 h
[22] = as §1; format: ADME; settings: serpentes, 0.25 h, 50 µM

T1 sequence (P49789 whole entry): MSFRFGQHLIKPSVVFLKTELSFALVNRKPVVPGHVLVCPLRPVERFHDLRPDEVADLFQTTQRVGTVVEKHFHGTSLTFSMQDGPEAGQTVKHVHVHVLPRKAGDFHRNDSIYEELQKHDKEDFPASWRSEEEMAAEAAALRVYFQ

Nc1nc2c(ncn2[C@@H]2O[C@H](COP(O)(O)=S)[C@@H](O)[C@H]2O)c(=O)[nH]1
Drug metabolism [1]: Metabolite_Detected | Retention_time [2]: 11.1 min

Nc1ncnc2c1ncn2[C@@H]1O[C@H](CO[P@@](=O)(S)OP(=O)(O)O[P@](=O)(S)OC[C@H]2O[C@@H](n3cnc4c(N)ncnc43)[C@H](O)[C@@H]2O)[C@@H](O)[C@H]1O
Drug degradation [3]: 5.8 pmol/min | metabolised at 10 min, 50 µM [4]: 88% | Drug degradation [5]: 0.1349 nmol/min

NC(=O)c1ncn([C@@H]2O[C@H](CO[P@](=O)(S)OP(=O)(O)O[P@@](=O)(S)OC[C@H]3O[C@@H](n4cnc(C(N)=O)n4)[C@H](O)[C@@H]3O)[C@@H](O)[C@H]2O)n1
Stability [6]: Stable | metabolised at 1 h, 200 µM [7]: 10% | Drug degradation [8]: 0.0023 nmol/min

NC(=O)c1ncn([C@@H]2O[C@H](CO[P@@](=O)(S)OP(=O)(O)O)[C@@H](O)[C@H]2O)n1
Retention_time [2]: 11.8 min

Nc1ncnc2c1ncn2[C@@H]1O[C@H](CO[P@](=O)(S)OP(=O)(O)O)[C@@H](O)[C@H]1O
Drug degradation [9]: 1.1 ×10⁻³ nmol/min | metabolised at 50 µM [10]: 10% | Drug metabolism [11]: Metabolite_Detected | Drug metabolism [12]: Metabolite_Detected | Retention_time [2]: 16.8 min

NC(=O)c1ncn([C@@H]2O[C@H](CO[P@](=O)(S)OP(=O)(O)O)[C@@H](O)[C@H]2O)n1
Retention_time [2]: 10.9 min

Nc1ncnc2c1ncn2[C@@H]1O[C@H](CO[P@](=O)(S)OP(=O)(O)O[P@@](=O)(S)OC[C@H]2O[C@@H](n3cnc4c(N)ncnc43)[C@H](O)[C@@H]2O)[C@@H](O)[C@H]1O
Drug degradation [3]: 5.7 pmol/min | metabolised at 2 h, 50 µM [13]: 52% | Drug degradation [14]: 0.0012 nmol/min

Nc1ncnc2c1ncn2[C@@H]1O[C@H](CO[P@@](=O)(S)OP(=O)(O)O)[C@@H](O)[C@H]1O
Drug degradation [9]: 2.9 ×10⁻³ nmol/min | metabolised at 50 µM [10]: 10% | Drug metabolism [15]: Metabolite_Detected | Retention_time [2]: 18.9 min

Nc1ncnc2c1ncn2[C@@H]1O[C@H](CO[P@](=O)(S)OP(=O)(O)O[P@](=O)(S)OC[C@H]2O[C@@H](n3cnc4c(N)ncnc43)[C@H](O)[C@@H]2O)[C@@H](O)[C@H]1O
Drug degradation [3]: 27.8 pmol/min | metabolised at 0.5 h, 50 µM [16]: 88% | Drug degradation [17]: 0.0368 nmol/min

Nc1nc2c(ncn2[C@@H]2O[C@H](CO[P@@](=O)(S)OP(=O)(O)O)[C@@H](O)[C@H]2O)c(=O)[nH]1
Retention_time [2]: 16.9 min

NC(=O)c1ncn([C@@H]2O[C@H](CO[P@@](=O)(S)OP(=O)(O)O[P@](=O)(S)OC[C@H]3O[C@@H](n4cnc(C(N)=O)n4)[C@H](O)[C@@H]3O)[C@@H](O)[C@H]2O)n1
Stability [6]: Stable | metabolised at 1 h, 200 µM [7]: 80% | Drug degradation [8]: 0.0538 nmol/min

Nc1nc2c(ncn2[C@@H]2O[C@H](CO[P@@](=O)(S)OP(=O)(O)O[P@](=O)(S)OC[C@H]3O[C@@H](n4cnc5c(=O)[nH]c(N)nc54)[C@H](O)[C@@H]3O)[C@@H](O)[C@H]2O)c(=O)[nH]1
Drug degradation [3]: 0.7 pmol/min | metabolised at 1 h, 50 µM [18]: 95% | Drug degradation [19]: 0.1212 nmol/min

Nc1nc2c(ncn2[C@@H]2O[C@H](CO[P@](=O)(S)OP(=O)(O)O)[C@@H](O)[C@H]2O)c(=O)[nH]1
Retention_time [2]: 14.9 min

NC(=O)c1ncn([C@@H]2O[C@H](COP(=O)(O)S)[C@@H](O)[C@H]2O)n1 (some centres undefined)
Retention_time [2]: 10.6 min

NC(=O)c1ncn([C@@H]2O[C@H](CO[P@](=O)(S)OP(=O)(O)O[P@](=O)(S)OC[C@H]3O[C@@H](n4cnc(C(N)=O)n4)[C@H](O)[C@@H]3O)[C@@H](O)[C@H]2O)n1
Stability [6]: Stable | metabolised at 1 h, 200 µM [7]: 41% | Drug degradation [8]: 0.0253 nmol/min

Nc1ncnc2c1ncn2[C@@H]1O[C@H](COP(=O)(O)OP(=O)(O)OP(=O)(O)OC[C@H]2O[C@@H](n3cnc4c(N)ncnc43)[C@H](O)[C@@H]2O)[C@@H](O)[C@H]1O
Drug degradation [3]: 9810 pmol/min

Nc1ncnc2c1ncn2[C@@H]1O[C@H](COP(O)(O)=S)[C@@H](O)[C@H]1O
Retention_time [2]: 13.8 min

Nc1nc2c(ncn2[C@@H]2O[C@H](COP(=O)(S)OP(=O)(O)OP(=O)(S)OC[C@H]3O[C@@H](n4cnc5c(=O)[nH]c(N)nc54)[C@H](O)[C@@H]3O)[C@@H](O)[C@H]2O)c(=O)[nH]1 (mixture of isomers)
Drug degradation [3]: 5.9 pmol/min | metabolised at 1 h, 50 µM [18]: 50% | Drug degradation [19]: 0.0275 nmol/min

Nc1nc2c(ncn2[C@@H]2O[C@H](COP(=O)(S)OCCSP(=O)(S)OC[C@H]3O[C@@H](n4cnc5c(=O)[nH]c(N)nc54)[C@H](O)[C@@H]3O)[C@@H](O)[C@H]2O)c(=O)[nH]1 (stereo in doubt; 9A)
Drug degradation [3]: 3.9 pmol/min | metabolised at 0.25 h, 50 µM [20]: 70% | Drug degradation [21]: 0.6944 nmol/min

Nc1nc2c(ncn2[C@@H]2O[C@H](COP(=O)(S)OCCSP(=O)(S)OC[C@H]3O[C@@H](n4cnc5c(=O)[nH]c(N)nc54)[C@H](O)[C@@H]3O)[C@@H](O)[C@H]2O)c(=O)[nH]1 (stereo in doubt; 9B)
Drug degradation [3]: 2 pmol/min | Drug degradation [22]: 56% | Drug degradation [21]: 0.5539 nmol/min

Nc1ncnc2c1ncn2[C@@H]1O[C@H](COP(=O)(O)OP(=O)(O)O)[C@@H](O)[C@H]1O [ADENOSINE DIPHOSPHATE]
Stability [9]: Stable
